Measurements reported in patent publication EP0462621A2, “Use of particular compounds for manufacture of pharmaceutical formulations for treatment against various parasites, mycoplasmas, other indications and other infections” (Prendergast, Patrick Thomas, priority 1990, dated 1991).
pIC50: −log10 of the molar value.

How the values were obtained:
L donovani = experiment: Amastigotes (AM) in cell lines, in-vitro; format: cell-based; conditions: Ld., Amastigote; note: key: - no/poor activity,; + fair/moderate activity,; ++ good/excellent activity
From the text: (§1) Amastigotes of Leishmania can be cultivated in a wide range of mammalian cells, some of which may be used in in-vitro screens. These include (1) a Sticker dog sarcoma (fibroblast) cell line, (2) transformed rodent macrophage cell lines, (3) primary isolated mouse peritoneal macrophages (MP mo), and (4) human monocyte-derived macrophages (HM mo). The methods are similar for all models. Amastigote or promastigote infected cells are maintained in a medium containing the drug for 4-7 days, at 37 C for L. donovani and 33-35 C for L. major and L. mexicana. Drug activity is then assessed by counting (I) the number of infected host cells and/or (II) the number of amastigotes/100 host cells.
(§2) In-vitro and in-vivo models were used to test activities of a selection of many compounds. Those activities are summarized in Tables 1-3, showing variation between systems and species. Activities measured in the MP mo and HM mo models have shown the best correlation with results obtained in hamster and mouse models.

L major/L mexicana = experiment: Amastigotes (AM) in cell lines, in-vitro; format: cell-based; conditions: Lm., Amastigote; note: key: - no/poor activity,; + fair/moderate activity,; ++ good/excellent activity
From the text: as §1, §2

HIV-1 = experiment: In vitro HIV-1 infection of H9 cells, HIV-1 P24 antigen capture test; format: cell-based; conditions: doses of 3.75 µM or higher, Figure 13
Experimental: In vitro infection of H9 cells was carried out as described previously. Briefly, 5x10^6 H9 cells were treated with DEAE-dextran (25 µg/mt) for 20 min. Cells were then infected with 1 ml of cell free HIV-1 (1 X1 05 RT unit) for 1 hr at 37° C. Cells were then washed and incubated for 12 days in the absence or presence of various concentrations of IPA. Every 3-4 days, the medium was replaced with fresh medium containing appropriate concentrations of drug. At various days following infection, the presence of HIV-1 in the supernatant was monitored by measuring HIV-1 P24 using the antigen capture test (DuPont@, Wilmington, DE).
An investigation of the effect of IPA on in-vitro HIV-1 infection of H9 cells, a T cell line, was performed. The drug was added following 1 hr adsorption of the virus, and was maintained in the culture medium throughout the incubation period.

H9-HIV-1 cells = experiment: Cytotoxicity in persistently infected H9-HIV-1 cells, viable cell number; format: cell-based, human; conditions: 30 u.M and lower; up to 30 days
81-66-45 Cells = experiment: Cytotoxicity on uninfected 81-66-45 cells, 10 days continuous exposure; format: cell-based; conditions: read-out: ID50 - The concentration of IPA which kills 50% of the cells
Experimental: The "Percent Dead Cells" are taken from Tables la(d) (iii) and la(d) (v) using the 10-day value, and the therapeutic index have been calculated for each drug concentration. The results of IPA are also graphed in Figures 16 and 17. Cytotoxicity (the dashed line) is calculated as the percent live cells.
The availability of toxicity data collected in the same time frame as required for determination of antiviral effectiveness allowed determination of values for two different cell lines. Figures 16 and 17 illustrate the curves obtained by plotting the cytotoxicity of IPA (as a percent of the control cell viability) versus the percent of inhibition of HIV-1 replication (as a percent of the control titer) when H9 and 81-66-45 cells were tested. The cytotoxicity data obtained with 10 days continuous exposure, using uninfected cells, were used since 10 days was the length of time required to carry out the infectivity test. As is apparent from Tables la-(d) (ii) - la(d) (v), toxicity is much lower when the drug is added to cells for one day and then removed, or when cells are exposed for only 1 or 4 days. It is difficult to mimic in-vivo exposure times, particularly if metabolites are more toxic than the parent compound and are readily cleared in-vivo but not in-vitro.

[1] = Case study one: AIDS patient treated with IPA; format: in vivo, human; conditions: IPA from February 1989
Experimental: A case study of an AIDS patient one, was conducted. Patient one began treatment with IPA in February 1989, while in a nearly moribund condition, suffering from depression, exhaustion, bronchial infection, severe diarrhoea, severe weight loss (weight in February was 98 lbs.), complete loss of appetite and spiked fever. […] By March 21, 1989, patient one stated that they felt cured and abruptly (unilaterally) stopped taking IPA, resulting in dramatic deterioration of their condition. In May, 1989, patient one resumed IPA therapy, and experienced dramatic recovery. At the end of May, 1989, patient one again stopped taking IPA, and their condition again deteriorated. Again IPA treatment was restarted, and patient one's condition improved. In early June, 1989, patient one again stopped IPA therapy and died several weeks later.
The study concluded that patient one would have apparently enjoyed appreciable therapeutic benefits from IPA if they had conscientiously and continuously received IPA medication.

[2] = test system: herpes simplex type 1 (HSV-1); experiment: M413 cells, HSV-1; format: cell-based; conditions: M413 cell line of human fibroblasts
Experimental: A procedure similar to that described for Experiment la(g) was followed except herpes simplex virus- type I (HSV-I) was used.
The experiments were performed in duplicate M413 cells which were set up in Titer-Tek slides (4 well, glass) and those that were confluent within one day were used in experiments. Within 24-48 hours, cell densities were checked to ensure sufficiency to proceed with infection. Stock HSV-1 was serially diluted in 10-fold steps (1, 10^-1, 10-^2, 10-^3, 10-^4) to provide 2 ml of each dilution: 0.2/1.8 ml diluent to finally yield overall dilutions of approximately 10^-1, 10^-2, 10-^3, 10^-4, 10-^5. Virus absorption was allowed for 90 minutes at 37 °C, after which time the inoculum was removed and replaced with solutions containing IPA at the concentrations as indicated in Table la(j). The slide was incubated for 3 days and stained with the following antisera: monoclonal antibody (MAB) to HSV-1 virus capsid antigen (VCA) at 1:20; control mores IgG at 1:20.

[3] = test system: monocyte/macrophage cultures; experiment: Appearance and differentiation of monocyte/macrophage cultures in Experiment la(a); format: cell-based
Experimental: Fresh macrophage cultures were obtained by incubation of mononuclear cells obtained from a leukopak directly in the wells of a microtiter plate having 6 wells per row. After removal of non-adherent cells, each row of the adherent macrophages was infected with 10-fold serial dilutions of HIV-I, with the use of polybrene to enhance uptake of the virus. After one to two hours, the virus inoculum was removed and replaced with fresh normal growth medium. The fresh medium for each row contained a particular concentration of AZT, dideoxy cytidine (ddC), or compound la, as indicated by the left-hand column of Table la(a). The first row of wells acted as a control, and to it was added fresh medium containing none of the three drugs. Medium levels were maintained for two to four weeks to allow replication of the virus to take place, with at least one complete fluid change to remove residual virus inoculum. The contents of each well were then tested for the level of HIV p24 antigen present using a commercially available antigen capture kit employing a radio-immunoassay which can detect as little as 10'^9gm of p24 present in a sample. The above procedure was done in duplicate runs.

HIV-I = experiment: Experiment la(a): macrophage cells, HIV-I, p24 antigen capture radio-immunoassay; format: cell-based; conditions: Human immunodeficiency virus 1, Monocyte; Monocytes; HIV-1; as read from Figure 15

Question: Which “Activity, AM in cell lines” value (L donovani) does the source give for `CC(C)=CCNc1ncnc2c1ncn2[C@@H]1O[C@H](CO)[C@@H](O)[C@H]1O` [IPA, N^6-(Δ^2-isopentenyl) adenosine] here?
Answer: The value was “-”.

Question: What about the “Activity, AM in cell lines” value (L major/L mexicana) of the same compound?
Answer: The value was “+”.

Question: And the “inhibition of HIV-1 production” value (HIV-1)?
Answer: The value was “more than five log inhibition”.

Question: What about the “cytotoxicity, viable cell number” value (H9-HIV-1 cells) of the same compound?
Answer: Its value is “No cytotoxicity”.

Question: What about the CC50 (81-66-45 Cells) of the same compound?
Answer: Its CC50 is 40 µM.

Question: And the “T and B lymphocyte competence” value [1]?
Answer: Its value is “major rapid recovery”.

Question: And the “in-vitro levels of herpes simplex type 1 (HSV-1)” value [2]?
Answer: The value was “reduces”.

Question: What about the “appearance of monocyte/macrophage cultures” value ([3]; all concentrations of IPA used (3-1000 μM)) of the same compound?
Answer: Its value is “appeared to be healthy”.

Question: What about the “differentiation of small immature monocytes into large adherent macrophage cells” value ([3]; in the presence of IPA) of the same compound?
Answer: The value was “did not take place”.

Question: What about the pIC50 (HIV-I) of the same compound?
Answer: The pIC50 was 5.22.

Question: What about the IC90 (HIV-I) of the same compound?
Answer: Its IC90 is 10 µM.
